The structures appear in SMILES notation.

The nature of experiment [1]: Inhibition of FGFR1OP2 fused FGFR1 in human KG1 cells assessed as inhibition of cell proliferation after 72 hrs by cell counting kit-8 assay. On the technique in general: Formazan colour is commonly taken as a measure of viable cells.
Experiment [2] is described as follows: Inhibition of CCDC6-fused RET (unknown origin) expressed in mouse Ba/F3 cells assessed as inhibition of cell proliferation after 72 hrs by cell counting kit-8 assay.
Experiment [3] can be described thus: Inhibition of TEL-fused KDR (unknown origin) expressed in mouse Ba/F3 cells assessed as inhibition of cell proliferation after 72 hrs by cell counting kit-8 assay.
The nature of experiment [4]: Inhibition of FGFR1 in human NCI-H1581 cells assessed as inhibition of cell proliferation after 72 hrs by cell counting kit-8 assay.

Regarding `Cc1n[nH]c2ccc(-c3cc(N[C@@H](CO)c4ccccc4)cnc3-c3cc(F)ccc3O)cc12`, the IC50 (usually the midpoint of a concentration-inhibition curve) is 15 nM in experiment [1], 316 nM in experiment [2], 9.8 nM in experiment [3] and 391 nM in experiment [4].

The values are drawn from BindingDB's records for doi:10.1021/acs.jmedchem.7b00076 (University of Chinese Academy of Sciences, 2017).
